Assay results published in patent US7728012B2, “Carboxamide compounds and their use as calpain inhibitors” (Abbott GmbH & Co. KG, priority 2006, dated 2010).

Assays:
Type in all cases: biochemical
[1] = target: T1, cathepsin L isolated from human liver (Homo sapiens, UniProt P07711); experiment: Cathepsin L kinetic fluorescence enzyme inhibition assay; conditions: selectivity ratio versus calpain I
T1 construct: cathepsin L—isolated from human liver; purchased Calbiochem 219402; host or cells: human liver (tissue isolate)
In short: (§1)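 Inhibition is measured at room temperature in cysteine-containing MES buffer, pH 6.0, by continuous fluorescence at 460 nm. Cathepsin S (0.5 nM) uses 20 μM Z-Val-Val-Arg-AMC; L (1 nM) and B (0.25 nM) use Z-Phe-Arg-AMC at 2 and 100 μM respectively.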

[2] = target: T2, recombinant human cathepsin S (Homo sapiens, UniProt P25774); experiment: Cathepsin S kinetic fluorescence enzyme inhibition assay; conditions: selectivity ratio versus calpain I
T2 construct: purchased Calbiochem 219343; host or cells: E. coli
In short: as §1

[3] = target: T3, calpain-I isolated from human erythrocytes (Homo sapiens, UniProt P07384); experiment: Calpain I kinetic fluorescence enzyme inhibition assay; conditions: apparent Ki from IC50 by Cheng-Prussoff; average of 2 to 4 dose-effect plots
T3 construct: calpain-I—isolated from human erythrocytes; purchased Calbiochem 208713; host or cells: human erythrocytes (tissue isolate)
T3 sequence (P07384 1-714): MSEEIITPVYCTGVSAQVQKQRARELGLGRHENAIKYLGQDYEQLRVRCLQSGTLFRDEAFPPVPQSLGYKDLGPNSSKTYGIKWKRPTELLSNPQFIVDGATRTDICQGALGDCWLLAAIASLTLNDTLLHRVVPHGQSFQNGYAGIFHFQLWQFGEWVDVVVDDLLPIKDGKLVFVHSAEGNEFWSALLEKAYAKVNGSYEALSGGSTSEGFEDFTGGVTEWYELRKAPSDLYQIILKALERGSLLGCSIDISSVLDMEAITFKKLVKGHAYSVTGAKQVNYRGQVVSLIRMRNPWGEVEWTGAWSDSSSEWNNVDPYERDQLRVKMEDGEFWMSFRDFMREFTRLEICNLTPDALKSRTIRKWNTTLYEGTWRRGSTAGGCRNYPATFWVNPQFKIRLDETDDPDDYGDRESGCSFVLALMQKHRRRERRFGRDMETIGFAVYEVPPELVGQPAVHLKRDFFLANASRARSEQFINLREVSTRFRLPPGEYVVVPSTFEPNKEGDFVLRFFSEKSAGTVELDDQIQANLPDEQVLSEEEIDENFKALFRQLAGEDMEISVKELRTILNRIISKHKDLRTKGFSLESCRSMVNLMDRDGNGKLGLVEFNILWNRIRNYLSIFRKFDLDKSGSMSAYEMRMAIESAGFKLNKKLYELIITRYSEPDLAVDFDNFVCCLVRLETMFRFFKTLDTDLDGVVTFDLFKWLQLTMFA
T3 sequence (P04632 1-268 partner): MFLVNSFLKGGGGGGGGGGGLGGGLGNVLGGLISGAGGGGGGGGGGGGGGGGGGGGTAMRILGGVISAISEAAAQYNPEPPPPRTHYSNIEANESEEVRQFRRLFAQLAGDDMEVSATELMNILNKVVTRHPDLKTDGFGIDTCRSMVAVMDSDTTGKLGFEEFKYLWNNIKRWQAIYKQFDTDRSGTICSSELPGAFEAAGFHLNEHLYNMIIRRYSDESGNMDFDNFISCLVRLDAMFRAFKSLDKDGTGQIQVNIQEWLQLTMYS

[4] = target: T4, cathepsin B isolated from human liver (Homo sapiens, UniProt P07858); experiment: Cathepsin B kinetic fluorescence enzyme inhibition assay; conditions: selectivity ratio versus calpain I
T4 construct: cathepsin B—isolated from human liver; purchased Calbiochem 219362; host or cells: human liver (tissue isolate)
In short: as §1

[5] = target: T5, cathepsin K activated from recombinant human procathepsin K (Homo sapiens, UniProt P43235); experiment: Cathepsin K kinetic fluorescence enzyme inhibition assay; conditions: selectivity ratio versus calpain I
T5 construct: purchased Calbiochem 342001; host or cells: E. coli
T5 sequence (P43235 115-329): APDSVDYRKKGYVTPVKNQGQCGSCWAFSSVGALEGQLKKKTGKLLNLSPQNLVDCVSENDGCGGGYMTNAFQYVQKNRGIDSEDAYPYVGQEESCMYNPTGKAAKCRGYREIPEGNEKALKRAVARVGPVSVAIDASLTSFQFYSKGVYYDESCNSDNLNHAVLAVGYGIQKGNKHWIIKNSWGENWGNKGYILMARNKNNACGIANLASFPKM

T1 sequence (P07711 114-333): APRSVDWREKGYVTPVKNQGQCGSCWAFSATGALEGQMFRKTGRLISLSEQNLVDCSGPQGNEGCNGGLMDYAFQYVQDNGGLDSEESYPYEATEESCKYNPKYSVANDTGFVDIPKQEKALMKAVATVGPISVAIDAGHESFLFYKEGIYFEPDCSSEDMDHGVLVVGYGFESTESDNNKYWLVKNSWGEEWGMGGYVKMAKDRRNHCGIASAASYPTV
T2 sequence (P25774 115-331): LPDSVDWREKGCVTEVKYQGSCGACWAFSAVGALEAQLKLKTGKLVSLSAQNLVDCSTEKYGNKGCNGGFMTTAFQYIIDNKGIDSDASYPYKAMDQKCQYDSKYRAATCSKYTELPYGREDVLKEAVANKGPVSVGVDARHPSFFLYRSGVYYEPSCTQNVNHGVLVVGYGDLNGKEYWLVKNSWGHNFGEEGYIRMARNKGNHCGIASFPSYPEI

Row | SMILES | Sel cat. L (Ki(cathepsin L)/Ki(calpain) ratio) [1] | Sel cat. S (Ki(cathepsin S)/Ki(calpain) ratio) [2] | Ki [3] | Sel cat. B (Ki(cathepsin B)/Ki(calpain) ratio) [4] | Sel cat. K (Ki(cathepsin K)/Ki(calpain) ratio) [5]
1 | COc1ccc(CC(NC(=O)c2cccnc2-n2ccc(-c3cccc4ccccc34)n2)C(=O)C(N)=O)cc1 (stereo not shown) [Example 135, N-(3-Amino-1-{[4-(methyloxy)phenyl]methyl}-2,3-dioxopropyl)-2-(3-naphthalen-1-yl-1H-pyrazol-1-yl)pyridine-3-carboxamide] | ++ (Ki(cathepsin L)/Ki(calpain) ratio of ≧50) | ++ (Ki(cathepsin S)/Ki(calpain) ratio of ≧100) | ≤ 40 nM | ++ (Ki(cathepsin B)/Ki(calpain) ratio of ≧30) | ++ (Ki(cathepsin K)/Ki(calpain) ratio of ≧30)
2 | COc1ccc(CC(NC(=O)c2cccnc2-n2ccc(-c3ccc(F)cc3OC)n2)C(=O)C(N)=O)cc1 (stereo not shown) [Example 136, N-(3-Amino-1-{[4-(methyloxy)phenyl]methyl}-2,3-dioxopropyl)-2-{3-[4-fluoro-2-(methyloxy)phenyl]-1H-pyrazol-1-yl}pyridine-3-carboxamide] | ++ (Ki(cathepsin L)/Ki(calpain) ratio of ≧50) | ++ (Ki(cathepsin S)/Ki(calpain) ratio of ≧100) | ≤ 40 nM | ++ (Ki(cathepsin B)/Ki(calpain) ratio of ≧30) | ++ (Ki(cathepsin K)/Ki(calpain) ratio of ≧30)
3 | COc1ccc(CC(NC(=O)c2cccnc2-n2ccc(-c3ccc4c(c3)OC(F)(F)O4)n2)C(=O)C(N)=O)cc1 (stereo not shown) [Example 137, N-(3-Amino-1-{[4-(methyloxy)phenyl]methyl}-2,3-dioxopropyl)-2-[3-(2,2-difluoro-1,3-benzodioxol-5-yl)-1H-pyrazol-1-yl]pyridine-3-carboxamide] | ++ (Ki(cathepsin L)/Ki(calpain) ratio of ≧50) | ++ (Ki(cathepsin S)/Ki(calpain) ratio of ≧100) | 40 to 100 nM | + (10≦Ki(cathepsin B)/Ki(calpain)<30) | + (10≦Ki(cathepsin K)/Ki(calpain)<30)
4 | COc1cc(Cl)ccc1-c1ccn(-c2ncccc2C(=O)NC(Cc2ccccc2)C(=O)C(N)=O)n1 (stereo not shown) [Example 139, N-[3-Amino-2,3-dioxo-1-(phenylmethyl)propyl]-2-{3-[4-chloro-2-(methyloxy)phenyl]-1H-pyrazol-1-yl}pyridine-3-carboxamide] | ++ (Ki(cathepsin L)/Ki(calpain) ratio of ≧50) | ++ (Ki(cathepsin S)/Ki(calpain) ratio of ≧100) | 40 to 100 nM | + (10≦Ki(cathepsin B)/Ki(calpain)<30) | ++ (Ki(cathepsin K)/Ki(calpain) ratio of ≧30)
5 | NC(=O)C(=O)C(Cc1ccccc1)NC(=O)c1cccnc1-n1cc2c(n1)-c1cc(Cl)ccc1OC2 (stereo not shown) [Example 140, N-[3-Amino-2,3-dioxo-1-(phenylmethyl)propyl]-2-(8-chlorochromeno[4,3-c]pyrazol-2(4H)-yl)pyridine-3-carboxamide] | ++ (Ki(cathepsin L)/Ki(calpain) ratio of ≧50) | ++ (Ki(cathepsin S)/Ki(calpain) ratio of ≧100) | ≤ 40 nM | + (10≦Ki(cathepsin B)/Ki(calpain)<30) | ++ (Ki(cathepsin K)/Ki(calpain) ratio of ≧30)
6 | COc1ccc2c(c1)OCc1cn(-c3ncccc3C(=O)NC(Cc3ccccc3)C(=O)C(N)=O)nc1-2 (stereo not shown) [Example 142, N-[3-Amino-2,3-dioxo-1-(phenylmethyl)propyl]-2-[7-(methyloxy)chromeno[4,3-c]pyrazol-2(4H)-yl]pyridine-3-carboxamide] | ++ (Ki(cathepsin L)/Ki(calpain) ratio of ≧50) | ++ (Ki(cathepsin S)/Ki(calpain) ratio of ≧100) | ≤ 40 nM | + (10≦Ki(cathepsin B)/Ki(calpain)<30) | + (10≦Ki(cathepsin K)/Ki(calpain)<30)
7 | Cc1c(Cl)ccc2c1-c1nn(-c3ncccc3C(=O)NC(Cc3ccccc3)C(=O)C(N)=O)cc1CO2 (stereo not shown) [Example 143, N-[3-Amino-2,3-dioxo-1-(phenylmethyl)propyl]-2-(8-chloro-9-methylchromeno[4,3-c]pyrazol-2(4H)-yl)pyridine-3-carboxamide] | ++ (Ki(cathepsin L)/Ki(calpain) ratio of ≧50) | ++ (Ki(cathepsin S)/Ki(calpain) ratio of ≧100) | 40 to 100 nM | ++ (Ki(cathepsin B)/Ki(calpain) ratio of ≧30) | ++ (Ki(cathepsin K)/Ki(calpain) ratio of ≧30)
8 | NC(=O)C(=O)C(Cc1ccc(F)cc1)NC(=O)c1cccnc1-n1ccc(-c2ccccc2OC(F)(F)F)n1 (stereo not shown) [Example 152, N-{3-Amino-1-[(4-fluorophenyl)methyl]-2,3-dioxopropyl}-2-(3-{2-[(trifluoromethyl)oxy]phenyl}-1H-pyrazol-1-yl)pyridine-3-carboxamide] | ++ (Ki(cathepsin L)/Ki(calpain) ratio of ≧50) | ++ (Ki(cathepsin S)/Ki(calpain) ratio of ≧100) | ≤ 40 nM | ++ (Ki(cathepsin B)/Ki(calpain) ratio of ≧30) | ++ (Ki(cathepsin K)/Ki(calpain) ratio of ≧30)
9 | COc1ccc(CC(NC(=O)c2cccnc2-n2ccc(-c3cccc(Cl)c3Cl)n2)C(=O)C(N)=O)cc1 (stereo not shown) [Example 153, N-(3-Aamino-1-{[4-(methyloxy)phenyl]methyl}-2,3-dioxopropyl)-2-[3-(2,3-dichlorophenyl)-1H-pyrazol-1-yl]pyridine-3-carboxamide] | ++ (Ki(cathepsin L)/Ki(calpain) ratio of ≧50) | ++ (Ki(cathepsin S)/Ki(calpain) ratio of ≧100) | ≤ 40 nM | ++ (Ki(cathepsin B)/Ki(calpain) ratio of ≧30) | ++ (Ki(cathepsin K)/Ki(calpain) ratio of ≧30)
10 | NC(=O)C(=O)C(Cc1ccccc1)NC(=O)c1cccnc1-n1ccc(-c2cccc(C(F)(F)F)c2Cl)n1 (stereo not shown) [Example 155, N-[3-Amino-2,3-dioxo-1-(phenylmethyl)propyl]-2-{3-[2-chloro-3-(trifluoromethyl)phenyl]-1H-pyrazol-1-yl}pyridine-3-carboxamide] | ++ (Ki(cathepsin L)/Ki(calpain) ratio of ≧50) | ++ (Ki(cathepsin S)/Ki(calpain) ratio of ≧100) | 40 to 100 nM | ++ (Ki(cathepsin B)/Ki(calpain) ratio of ≧30) | ++ (Ki(cathepsin K)/Ki(calpain) ratio of ≧30)
11 | COc1ccc(CC(NC(=O)c2cccnc2-n2ccc(-c3cccc(F)c3Cl)n2)C(=O)C(N)=O)cc1 (stereo not shown) [Example 157, N-(3-Amino-1-{[4-(methyloxy)phenyl]methyl}-2,3-dioxopropyl)-2-[3-(2-chloro-3-fluorophenyl)-1H-pyrazol-1-yl]pyridine-3-carboxamide] | ++ (Ki(cathepsin L)/Ki(calpain) ratio of ≧50) | ++ (Ki(cathepsin S)/Ki(calpain) ratio of ≧100) | ≤ 40 nM | ++ (Ki(cathepsin B)/Ki(calpain) ratio of ≧30) | ++ (Ki(cathepsin K)/Ki(calpain) ratio of ≧30)
